From PMC6963971, “Withanolides from Withania aristata as Antikinetoplastid Agents through Induction of Programmed Cell Death” (Pathogens, 2019)
Where “and” joins values, the source holds several entries; their conditions need not be identical. Identical values can stand only once. Like-named read-outs stand apart in the source and are kept apart here.

Tests used:
[1] = system: L. donovani promastigotes; experiment: Leishmanicidal activity assay (alamarBlue), promastigotes; format: cell-based, Leishmania donovani; conditions: for IC50: promastigote stage; for SI (CC50/IC50), L. donovani: promastigotes vs murine macrophages
Experimental: (§1) To perform the experiments, promastigotes of L. amazonensis (MHOM/BR/77/LTB0016) and L. donovani (MHOM/IN/90/GE1F8R) and epimastigote T. cruzi (Y strain) were employed. Leishmania species were cultured in Schneider’s medium (Sigma-Aldrich, Madrid, Spain) at 26 °C supplemented with 10% fetal bovine serum (VWR, Biowest, Nuaillé, France) as well as in RPMI 1640 medium (Gibco, Thermo Fisher, Madrid, Spain). Epimastigotes of T. cruzi were cultured in Liver Infusion Tryptose (LIT) medium supplemented with 10% fetal bovine serum at 26 °C. For the cytotoxicity assays, murine macrophage cell line J774A.1 (ATCC TIB-67) was maintained at 37 °C in a 5% CO2 atmosphere in RPMI 1640 medium supplemented with 10% fetal bovine serum.
(§2) Promastigote in logarithmic phase were used for plate preparation, and the in vitro antiprotozoal assay was performed in 96-well plates. The different fractions or compounds were serially diluted on the wells and 10^6 parasites/mL were finally added. The activity of the fraction was calculated by the alamarBlue® method. In addition, the active pure molecules were tested against the amastigote stage of L. amazonensis.

[2] = system: murine macrophage cell line J774A.1; experiment: Cytotoxicity assay (alamarBlue); format: cell-based
Experimental: as §1
(§3) The cytotoxicity was evaluated using a macrophage cell line J774A.1 in RPMI medium. Macrophages were plated and at 10^5 macrophages/well and, subsequently, serial dilution of samples were added to the plates. After 24 h of incubation cell viability was determined by the alamarBlue® [28].

[3] = system: L. amazonensis promastigotes; experiment: Leishmanicidal activity assay (alamarBlue), promastigotes; format: cell-based, Leishmania amazonensis; conditions: for fold more potent than the reference drug against L. amazonensis / IC50: promastigote stage; for fold more potent than the reference drug against L. amazonensis: vs miltefosine; for IC50: read-out: L. amazonensis IC50 (µM ± SD); for SI (CC50/IC50), L. amazonensis: promastigotes vs murine macrophages
Experimental: as §1, §2

[4] = system: intracellular amastigote stage of L. amazonensis; experiment: Amastigote activity assay (parasite rescue and transformation, alamarBlue); format: cell-based, Leishmania amazonensis; conditions: for SI (CC50/IC50), L. amazonensis amastigote: amastigotes vs murine macrophages; for IC50: intracellular amastigote stage, read-out: L. amazonensis IC50 (µM ± SD); for fold more potent than the reference drug against L. amazonensis amastigotes: intracellular amastigote, vs miltefosine
Experimental: as §2
The amastigote activity was performed according to Jain et al.. After allowing the transformation of rescued amastigotes to promastigotes, the activity was evaluated by AlamarBlue method. After incubation, the fluorescence was measured in a Perkin Elmer EnSpire spectrofluorometer and fluorescence was measured at emission peak 585 nm.

T. cruzi epimastigotes = experiment: Trypanocidal capacity assay (alamarBlue), epimastigotes; format: cell-based, Trypanosoma cruzi; conditions: for IC50: epimastigote stage, read-out: T. cruzi IC50 (µM ± SD); for SI (CC50/IC50), T. cruzi: epimastigotes vs murine macrophages
Experimental: as §1
For the evaluation against the epimastigote stage of T. cruzi, assays were performed following the same procedure mentioned in Section 3.5.1., modifying the density to 2 × 10^5 parasite/well and using LIT medium.

[5] = Cytotoxicity assay (alamarBlue); format: cell-based, murine; conditions: mouse, J774A.1 macrophage cell line; J774A.1, 24 h; read-out: Murine Macrophages CC50
Experimental: as §1, §3

L. amazonensis [6] = experiment: Chromatin condensation determination (Hoechst 33342/propidium iodide); format: cell-based, Leishmania amazonensis; conditions: IC90, 24 h
Experimental: The detection of condensed chromatin, was performed using the Vybrant™ Apoptosis Assay Kit #5, Hoechst 33342/Propidium Iodide (Invitrogen, Carlsbad, CA, USA). Parasites were incubated with the IC90 of the pure compounds for 24 h, then collected and centrifuged. The cell pellet was resuspended in RPMI, added to a black plate and incubated with the Hoechst 33342 and the propidium iodide. Then the plate was protected from light for 20 min at 4 °C. The EVOS FL Cell Imaging System (Invitrogen, ThermoFisher, Carlsbad, CA, USA) was used to observe the cells, using the DAPI (Hoechst) and RFP (PI) Light Cubes.

T. cruzi = experiment: Measurement of ATP (Cell Titer-Glo); format: cell-based, Trypanosoma cruzi; conditions: IC90, 24 h
Experimental: (§4) To determine the ATP level of the parasites, the Cell Titer-Glo® Luminescent Cell Viability Assay (Promega, Madison, WI, USA) was used following the manufacturer’s instructions after incubation of the parasites with the calculated IC90 of the tested withanolides for 24 h.

L. amazonensis [7] = experiment: Measurement of ATP (Cell Titer-Glo); format: cell-based, Leishmania amazonensis; conditions: IC90, 24 h
Experimental: as §4

| Molecule | fold more potent than the reference drug against L. amazonensis [3] [fold] | SI (CC50/IC50), L. amazonensis amastigote [4] | fold more potent than the reference drug against L. amazonensis amastigotes [4] [fold] | fold more potent than benznidazole against T. cruzi epimastigotes (T. cruzi epimastigotes) [fold] | CC50 at 24 h [5] | SI (CC50/IC50), T. cruzi (T. cruzi epimastigotes) | SI (CC50/IC50), L. donovani [1] | SI (CC50/IC50), L. amazonensis [3] | IC50 ([4]; Leishmania amazonensis) [µM] | also measured |
| --- | --- | --- | --- | --- | --- | --- | --- | --- | --- | --- |
| witharistatin [Compound 3] | 2.3 | 58.66 | 14.9 | 2.9 | – | – | – | – | – | IC50 ([1]; read-out: L. donovani IC50 (µM ± SD)): 20.9 ± 1.33 µM; CC50 [2]: 12300 ± 1160 nM; IC50 [3]: 2.82 ± 0.07 µM; IC50 [4]: 0.209 ± 0.028 µM; IC50 (T. cruzi epimastigotes): 2.41 ± 0.11 µM |
| O=C(Cn1ccnc1[N+](=O)[O-])NCc1ccccc1 [Benznidazole] | – | – | – | – | 104 µg/mL and 400 µM | 57.54 | – | – | – | – |
| CC1=C(CO)C(=O)O[C@@H]([C@@H](C)[C@H]2CC[C@H]3[C@@H]4C[C@H]5O[C@]56[C@@H](O)C=CC(=O)[C@]6(C)[C@H]4CC[C@]23C)C1 [Compound 1, withaferin A] | 7.8 | 216.73 | 56 | 6.8 | 11900 ± 1080 nM | 11.69 | 0.91 | 14.36 | 0.055 ± 0.009 | propidium iodide staining (L. amazonensis [6]): staining in red was observed; IC50 ([1]; Leishmania donovani, read-out: L. donovani IC50 (µM ± SD)): 13.2 ± 1.16 µM; IC50 ([3]; Leishmania amazonensis): 0.83 ± 0.07 µM; ATP level (T. cruzi): slight decrease; IC50 (T. cruzi epimastigotes; Trypanosoma cruzi): 1.02 ± 0.1 µM; total ATP level (L. amazonensis [7]): strong decrease |
| CCCCCCCCCCCCCCCCOP(=O)([O-])OCC[N+](C)(C)C [Miltefosine, reference compound] | – | 23.13 | – | – | 29.4 µg/mL and 72.2 µM | – | 21.81 | 11.14 | 3.12 ± 0.12 | IC50 ([1]; Leishmania donovani, read-out: L. donovani IC50): 1.35 µg/mL |
